“Also recorded” adds a separate entry of the source.
Key:
Jurkat T cells = assay: Growth and cell surface markers of transduced Jurkat T cells; settings: CD4, CXCR4, CD11a, CD18, ICAM3, MHC-I
SIVAGMtan = SIVAGMtan GFP vector challenge of CRFK cells expressing T5 proteins; type: cell-based; settings: in words
From the text: (§1) Most HIV-1 plasmids and vectors have been described previously (Berthoux et al., 2004). pNL4-3 contains a complete infectious HIV-1 provirus. pNL4-3-R5 bears the V3 loop of the CCR5-tropic 92TH014-2 HIV-1 strain (Papkalla et al., 2002). To generate pNL4-3-GFP-IRES-Nef, enhanced green fluorescent protein (eGFP) and the ECMV (encephalomyocarditis virus) IRES (internal ribosome entry site) were inserted upstream of nef pNLΔenvGFP is pNL4-3 with an env-inactivating mutation and eGFP in place of nef. […] For biochemistry, hT5Cyps were cloned into the p3xFLAG-CMV-7.1 expression vector (Sigma) and HIV-1 CA was expressed as a GST-fusion using the EF1α promoter.
(§2) 2×10^4 adherent cells/well or 8×10^4 suspension cells/well were plated in 48-well plates (Nunc) for challenge with single-cycle GFP reporter vectors that were titered as indicated. GFP synthesis was assessed by flow cytometry 48 hrs post-infection. […] For infection of 10^6 primary CD4^+ T cells or macrophages, 15 ng p24/10^6 cells of a CXCR4- or CCR5-tropic HIV-1NL4-3 stock was used, and infection was monitored by assessing the accumulation of RT activity in the supernatant (Sayah et al., 2004). FACSCalibur, Cellquest Pro (Becton Dickinson), and FlowJo software (Treestar, Inc.) were used to record and analyze fluorescence. […]

HIV-1NL4-3-IRES-GFP-Nef = assay: Single-cycle cell-to-cell spreading assay, 293T donors and Jurkat targets; type: cell-based; settings: protein expressed in 293T donor cells, 2 hours co-culture
From the text: The mechanism underlying these observations has not yet been determined. […] This would implicate T5-mediated restriction both at post-entry and at a much later step in the viral life cycle (Sakuma et al., 2007; Zhang et al., 2008a). […] To assess the effects of donor and target cell T5Cyp on cell-to-cell spread of HIV-1, a single-cycle cell-to-cell spreading assay for HIV-1 infection was designed. 293T donor cell lines expressing control or indicated T5Cyp were transfected with HIV-1NL4-3-IRES-GFP-Nef provirus and supernatant was harvest during the first 48 hours to measure production of virus by RT activity. […] At the indicated time points dextran sulfate was added to the co-culture to block further infection and cells were harvested. 48 hours later the percentage of infected target Jurkat T cells was measured by flow cytometry (FIG. 53A). The magnitude of HIV-1 restriction in single cycle assays using cell-free virus is shown for recipient Jurkat T cell lines and donor 293 T cell lines is shown (FIG. 53B).

HIV-2ROD = HIV-2ROD GFP vector challenge of CRFK cells expressing T5 proteins; type: cell-based; settings: in words
From the text: as §1, §2

HIV-1-G89V = HIV-1-G89V CA mutant vector challenge of CRFK cells; type: cell-based
From the text: Most HIV-1 plasmids and vectors have been described previously (Berthoux et al., 2004). pNL4-3 contains a complete infectious HIV-1 provirus. pNL4-3-R5 bears the V3 loop of the CCR5-tropic 92TH014-2 HIV-1 strain (Papkalla et al., 2002). To generate pNL4-3-GFP-IRES-Nef, enhanced green fluorescent protein (eGFP) and the ECMV (encephalomyocarditis virus) IRES (internal ribosome entry site) were inserted upstream of nef pNLΔenvGFP is pNL4-3 with an env-inactivating mutation and eGFP in place of nef. CSGW is an HIV-1 vector expressing eGFP under the control of the spleen focus forming virus (SFFV) promoter. pFUPI, was engineered from pFUW (Lois et al., 2002) and uses the ubiquitin promoter to drive expression of a puromycin resistance cassette followed by ECMV IRES-T5. pAIG uses the SFFV promoter to drive expression of T5 followed by IRES-eGFP. In pscALPS, the SFFV promoter drives expression of T5 and the human CypA promoter drives expression of eGFP. For three-component vector production, HIV-1 gag and pol were expressed using either psPAX2, p8.9NΔSB, p8.9NΔSB-G89V, or p8.9NΔSB-V86P/H87Q/I91V/M96I. p8.9NΔSB-V86P/H87Q/I91V/M96I is p8.9NΔSB with the V86P/H87Q/I91V/M96I mutation (Chatterji et al., 2005) introduced in CA. […] For biochemistry, hT5Cyps were cloned into the p3xFLAG-CMV-7.1 expression vector (Sigma) and HIV-1 CA was expressed as a GST-fusion using the EF1α promoter.

FIVPET = FIVPET GFP vector challenge of CRFK cells expressing T5 proteins; type: cell-based; settings: in words
From the text: as §1, §2

HIV-1NL4-3-GFP-IRES-Nef [1] = assay: Spreading infection after electroporation of proviral DNA into Jurkat T cell lines; type: cell-based
From the text: Studies were designed to see whether a similar system could be exploited in order to select for a T5Cyp-resistant virus. One approach was to introduce HIV-1NL4-3-GFP-IRES-Nef proviral DNA into Jurkat T cell lines expressing T5 or control by electroporation, to ensure that spreading infection was initiated by cell associated virus in the absence of free virus. […] Again no T5Cyp-resistant HIV-1 could be derived in this experimental setting.

HIV-1NL4-3-GFP-IRES-Nef [2] = assay: Spreading infection of Jurkat T cells with replication-competent HIV-1; type: cell-based; settings: for HIV-1 replication in spreading infection: in words, Jurkat, up to two months; for isolation of resistant HIV-1: wide range of inocula
Method: Jurkat T cells stably transduced with T5-expression vectors were infected with replication-competent HIV-1NL4-3-GFP-IRES-Nef.
(§3) 2×10^4 adherent cells/well or 8×10^4 suspension cells/well were plated in 48-well plates (Nunc) for challenge with single-cycle GFP reporter vectors that were titered as indicated. GFP synthesis was assessed by flow cytometry 48 hrs post-infection. For spreading infection, 10^6 Jurkat cells were infected with 1 to 15 ng p24/10^6 cells of HIV-1NL4-3-GFP-IRES-Nef. Cells were split every 3 days, fixed in 0.5% paraformaldehyde/PBS, and assayed for GFP synthesis by flow cytometry. For infection of 10^6 primary CD4^+ T cells or macrophages, 15 ng p24/10^6 cells of a CXCR4- or CCR5-tropic HIV-1NL4-3 stock was used, and infection was monitored by assessing the accumulation of RT activity in the supernatant (Sayah et al., 2004). FACSCalibur, Cellquest Pro (Becton Dickinson), and FlowJo software (Treestar, Inc.) were used to record and analyze fluorescence. 1-5×10^5 events were acquired for analysis.
as §3, with “cytometry.” for “cytometry. For infection of”, “or macrophages were infected with” for “or macrophages,”, “of CXCR4” for “of a CXCR4-”, “HIV-1NL4-3 stocks, or with low passage, primary isolates HIV-1DH12” for “HIV-1NL4-3 stock was used,”, “and HIV-1132W, (Olivier Schwartz, Pasteur Institute, Paris). Infection” for “and infection”, “supernatant (7).” for “supernatant (Sayah et al., 2004).”

Substance	growth kinetics and cell surface marker levels vs control vector (Jurkat T cells)	restriction of SIVAGMtan (SIVAGMtan)	infection of control target cells lower than with empty vector donors (HIV-1NL4-3-IRES-GFP-Nef)	restriction of HIV-2ROD (HIV-2ROD)	restriction of HIV-1-G89V (HIV-1-G89V)	restriction of FIVPET (FIVPET)	course of infection after electroporation of provirus (HIV-1NL4-3-GFP-IRES-Nef [1])	HIV-1 replication in spreading infection (HIV-1NL4-3-GFP-IRES-Nef [2])	isolation of resistant HIV-1 (HIV-1NL4-3-GFP-IRES-Nef [2])
hT5Cyp: human TRIM5α fused at serine 322 to human cyclophilin A, SEQ ID NO:12	grew with the same kinetics and expressed similar levels	significantly better than AoT5Cyp at low MOI	10 fold	blocked comparably	failed to restrict HIV-1-G89V	blocked comparably	the infection was self-limiting	No HIV-1 replication was detected; also recorded: significantly greater anti-HIV-1 activity than a chimeric human/rhesus monkey TRIM5α; also recorded: HIV-1 replication was not detected; also recorded: superior anti-HIV-1 activity	could not be isolated
AoT5Cyp: Aotus (owl monkey) TRIM5-cyclophilin A fusion protein [reference compound]	grew with the same kinetics and expressed similar levels	restricted all four lentiviruses	3 fold	blocked comparably	failed to restrict HIV-1-G89V	blocked comparably	the infection was self-limiting	No HIV-1 replication was detected; also recorded: HIV-1 replication was not detected	could not be isolated

From patent publication US8835617B2, “Polynucleotides encoding a human TRIM-Cyp fusion polypeptide, compositions thereof, and methods of using same” (priority 2008, dated 2014)
